How the values were obtained:
S. enteric (ATCC 43972) = assay: Antibacterial viability (CFU) assay, IC50; type: cell-based; settings: read-out: IC50
Summary of the method: (§1)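 IC50 values come from residual colony counts versus initial inoculum: cells at 2 ×10^7 CFU/mL in sterile BHI incubated with compound under shaking, 60 min, 37 °C, then plated for 24 h. Zone assays used agar diffusion with ampicillin (10 µg/well) control.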

[1] = tested on: P. aeruginosa (ATCC 27853); assay: Antibacterial viability (CFU) assay, IC50; type: cell-based; settings: Pseudomonas aeruginosa, ATCC27853
Summary of the method: as §1

B. subtilis (ATCC 6633) = assay: Antibacterial viability (CFU) assay, IC50; type: cell-based; settings: Bacillus subtilis, ATCC6633, B. subtilis (ATCC 6633)
Summary of the method: as §1

[2] = tested on: S. epidermidis (ATCC 14990); assay: Antibacterial viability (CFU) assay, IC50; type: cell-based; settings: Staphylococcus epidermidis, ATCC14990
Summary of the method: as §1

S. aureus (ATCC 25923) = assay: Antibacterial viability (CFU) assay, IC50; type: cell-based; settings: Staphylococcus aureus, ATCC25923
Summary of the method: as §1

[3] = tested on: K. pneumonia (ATCC 700603); assay: Antibacterial viability (CFU) assay, IC50; type: cell-based; settings: Klebsiella pneumoniae, ATCC700603
Summary of the method: as §1

B. cereus (ATCC 14579) = assay: Antibacterial viability (CFU) assay, IC50; type: cell-based; settings: Bacillus cereus, ATCC14579
Summary of the method: as §1

E. faecalis (ATCC 29122) = assay: Antibacterial viability (CFU) assay, IC50; type: cell-based; settings: Enterococcus faecalis, ATCC29122
Summary of the method: as §1

E. coli (ATCC 25966) = assay: Antibacterial viability (CFU) assay, IC50; type: cell-based; settings: Escherichia coli, ATCC25966; E. coil (ATCC 25966)
Summary of the method: as §1

[4] = tested on: CDK2 gene in HCT-116 cells; assay: qRT-PCR expression profile of the CDK2 gene in HCT-116 cells; type: cell-based, human; settings: 24 h, relative to untreated cells (given as decreased x-fold)
Procedure: Second, the expression profiles of the CDK2 gene in HCT-116 cells treated with compounds 4d and 4k were determined. The results were compared with the positive control (cells treated with the well-known cytotoxic drug 5-fluorouracil) and the negative control (untreated cells).
Primers specific for the cyclin-dependent kinase-2 (CDK2) and caspase-3 genes were designed using primer blast (https://www.ncbi.nlm.nih.gov/tools/primer-blast/, accessed on 31 October 2021) or primer3 (https://primer3.ut.ee/, accessed on 31 October 2021) software. The selected genes covered the two main groups of the cyclin-dependent kinase-2 (CDK2) gene and the caspase-3 gene. Primers were used in RT-qPCR analysis to amplify fragments of 100–200 bp in length (Table 7).
Total RNA was extracted from each cell culture flask using the RNeasy extraction kit (RNeasy micro kit, cat. no. 74004). Up to 1 × 10^6 cells, depending on the cell line, were disrupted in buffer RLT and homogenized and disrupted. Ethanol was then added to the lysate, creating conditions that promote the selective binding of RNA to the RNeasy membrane. […] The amount of extracted RNA was quantified by estimating the absorbance at 260 nm. The purity of the RNA was checked by measuring the ratio of the absorbance at 260 and 280 nm, where a ratio ranging from 1.8 to 2.0 was taken to be pure. […]
Quantitative real-time PCR was carried out with the Thermal Cycler Rotorgene Real-Time System II (Rotorgene, South Korea) with the SYBR kit. […]
The relative expression levels through the average cycle threshold (CT) were successfully detected. Average CT values were calculated from the triplicate experiment conducted for each gene; the CT value was detected by subtracting the average CT value of genes from the CT value of actin and GAPDH genes. The relative expression levels of the target genes were calculated using the ΔΔ Ct method and the reference genes GAPDH for the cancer cell line. Finally, a fold change equation […] was used to estimate relative expression levels, while the standard deviation was calculated from the replicated experimental data.

SMILES | IC50 (S. enteric (ATCC 43972)) [µM] | IC50 [1] [µM] | IC50 (B. subtilis (ATCC 6633)) [µM] | IC50 [2] [µM] | IC50 (S. aureus (ATCC 25923)) [µM] | IC50 [3] [µM] | IC50 (B. cereus (ATCC 14579)) [µM] | IC50 (E. faecalis (ATCC 29122)) [µM] | IC50 (E. coli (ATCC 25966)) [µM] | CDK2 transcript level, fold [4] [fold]
COc1cc(C2C(C#N)=C(N)OC(C)=C2C(=O)OCc2ccccc2)cc(OC)c1OC (centres unmarked) [4d, 6-Amino-5-cyano-2-methyl-4-(3,4,5-trimethoxy-phenyl)-4H-pyran-3-carboxylic acid benzyl ester] | 65.8 ± 2.29 | 67.4 ± 1.37 | 40.3 ± 1.95 | 26.7 ± 1.15 | 24.4 ± 1.15 | 72.63 ± 0.69 | 39.5 ± 0.8 | 29.1 ± 2.27 | 88.7 ± 2.52 | 0.50
CC1=C(C(=O)OCc2ccccc2)C(c2ccc(C#N)cc2)C(C#N)=C(N)O1 (centres unmarked) [4k, 6-Amino-5-cyano-4-(4-cyano-phenyl)-2-methyl-4H-pyran-3-carboxylic acid benzyl ester] | 75.5 ± 2.42 | 73.2 ± 3.5 | 42.1 ± 2.48 | 50.2 ± 2.48 | 43.9 ± 0.57 | 77.8 ± 2.96 | 48.1 ± 1.35 | 45.4 ± 0.57 | 80.2 ± 4.31 | 0.45

From publication PMC9317316, “Synthesis and Evaluation of Some New 4H-Pyran Derivatives as Antioxidant, Antibacterial and Anti-HCT-116 Cells of CRC, with Molecular Docking, Antiproliferative, Apoptotic and ADME Investigations” (Pharmaceuticals, 2022)
